In patent publication US10139394B2, “Method for controlling cancer metastasis or cancer cell migration by modulating the cellular level of lysyl tRNA synthetase” (Medicinal Bioconvergence Research Center, priority 2008, dated 2018):

Tested on: KRS and 67LR
Assay: Co-immunoprecipitation of KRS with 67LR
Format: cell-based, human
Conditions: 10 ug/ml of laminin for 1 hr; immunoprecipitation with 67LR antibody; FIG. 6
Protocol: FIGS. 1 to 6 show specific interaction between human KRS and laminin receptor. In FIG. 1, the interaction between full-length human KRS and 37LRP/p40 was determined by yeast two hybrid assay. AIMP1 and AIMP2, the two components of the multi-ARS complex, were used as positive and negative control, respectively. The positive interaction is indicated by blue colony formation on yeast medium containing X-gal. In FIG. 2, 37LRP was synthesized by in vitro translation in the presence of [^35S] methionine and subjected to pull-down with GST-KRS or GST. 37LRP co-precipitated with GST-KRS was detected by autoradiography. In FIG. 3, The peptide regions of KRS and 37LRP involved in their interaction was determined by yeast two hybrid assay as above. […] Myc-KRS was immunoprecipitated with anti-Myc antibody and co-precipitated 67LR and 37LRP were determined by immunoblotting. […] The cells were separated to cytoplasmic and membrane fractions and immunoprecipitated with anti-Myc antibody and co-precipitation of 37LRP and 67LR was determined by Western blotting. […]
In FIG. 7, A549 cells were treated with laminin (10 ug/ml) and the level of 67LR, 37LRP and KRS was determined by Western blotting at the indicated times. […] Myc-KRS was immunoprecipitated and co-precipitation of 67LR was determined by Western blotting. […]

Q: Which “binding of 67LR and KRS” value does the source give for “laminin: laminin (Engelbreth-Holm-Swarm murine sarcoma) from Sigma” here?
A: increased
